Source: patent US20230002359A1, “PESTICIDALLY ACTIVE FUSED BICYCLIC HETEROAROMATIC COMPOUNDS” (priority 2019, published 2023)

With C[C@@H](c1ncnn1-c1ccc(-c2nnn[nH]2)cn1)N(C)c1ncnc2c(C(F)(F)F)cc(Cl)cc12 the melting point was 77 to 79 °C.

C[C@H](Nc1c(C#N)cnc2c(C(F)(F)F)cc(C(F)(F)F)cc12)c1ncnn1-c1ncccn1 gave a melting point of 203 to 205 °C.

C[C@H](Nc1c(C#N)cnc2c(C(F)(F)F)cc(C(F)(F)F)cc12)c1ncnn1-c1ccc(C#N)cn1 showed a melting point of 204 to 206 °C.

In the case of C[C@@H](c1ncnn1-c1ncccn1)N(C)c1c(C#N)cnc2c(C(F)(F)F)cc(C(F)(F)F)cc12, the melting point is reported as 84 to 86 °C.

C[C@@H](c1ncnn1-c1ccc(-c2nccs2)cn1)N(C)c1ncnc2c(C(F)(F)F)cc(Cl)cc12 gave a melting point of 142 to 144 °C.

Compound C[C@@H](c1ncnn1-c1ncccn1)N(C)c1ncnc2c(C(F)(F)F)cc(C3CC3)cc12 has a melting point of 182 to 184 °C.

C[C@@H](c1ncnn1-c1ccc(-c2ncon2)cn1)N(C)c1ncnc2c(C(F)(F)F)cc(Cl)cc12 showed a melting point of 144 to 146 °C.

With C[C@@H](c1ncnn1-c1ccc(-c2noc(C(F)(F)F)n2)cn1)N(C)c1ncnc2c(C(F)(F)F)cc(Cl)cc12 the melting point was 75 to 77 °C.

Compound CC(Nc1ncnc2c(Cl)cc(C(F)(F)F)cc12)c1ncnn1-c1ccc(OC(F)F)cn1 (stereo not drawn) has a melting point of 240 to 242 °C.

For CC(c1ncnn1-c1ccc(OC(F)F)cn1)N(C)c1ncnc2c(Cl)cc(C(F)(F)F)cc12 (stereo not drawn), the melting point was 102 to 104 °C.

For CC(c1ncnn1-c1ccc(OC(F)F)cn1)N(C)c1ncnc2c(Br)cc(C(F)(F)F)cc12 (stereo not drawn), the melting point was 75 to 77 °C.

With C[C@@H](c1ncnn1-c1ccc(C(N)=O)cn1)N(C)c1ncnc2c(C(F)(F)F)cc(C(F)(F)F)cc12 the melting point was 183 to 185 °C.

Work on C[C@@H](c1ncnn1-c1ccc(C(N)=NO)cn1)N(C)c1ncnc2c(C(F)(F)F)cc(Cl)cc12 yielded a melting point of 223 to 225 °C.

With CC(c1nccnc1-c1ccc(Br)cn1)N(C)c1ncnc2c(Cl)cc(C(F)(F)F)cc12 (stereo not drawn) the melting point was 142 to 144 °C.

Work on CC(Nc1ncnc2c(Cl)cc(C(F)(F)F)cc12)c1nccnc1-c1ccc(Br)cn1 (stereo not drawn) yielded a melting point of 230 to 232 °C.

CC(c1nccnc1-c1ccc(C#N)cn1)N(CC1CC1)c1ncnc2c(C(F)(F)F)cc(Cl)cc12 (stereo not drawn) showed a melting point of 254 to 256 °C.

In the case of CC(Nc1ncnc2c(Cl)c(F)c(Cl)cc12)c1ncnn1-c1ccc(C#N)cn1 (stereo not drawn), the melting point is reported as 215 to 225 °C.

CC(c1ncnn1-c1ccc(C#N)cn1)N(C)c1ncnc2c(Cl)c(F)c(Cl)cc12 (stereo not drawn) gave a melting point of 145 to 155 °C.
